Laboratory results reported in ChEMBL document CHEMBL3792322, “Metabolic investigation on ZL006 for the discovery of a potent prodrug for the treatment of cerebral ischemia” (Bioorg Med Chem Lett, 2016).
The source made the active and inactive calls. The calls are words filed in the database; no cut-off is given here.

Assays:
Brain [1] = assay: Drug metabolism in mouse brain assessed as ZL006 formation at 20 mg/kg, iv measured 15 to 30 mins post dosing by HPLC-MS/MS method; format: ADME, organism-based; settings: in vivo
Rattus norvegicus [2] = assay: Protective activity in MCAO-induced rat focal cerebral ischemia model assessed as reduction in infarct size at 1 mg/kg, iv administered 1 hr post reperfusion measured after 24 hrs by TTC-staining based analysis; format: functional, organism-based
Mus musculus [3] = assay: Protective activity in BCCAO-induced mouse acute cerebral ischemia model assessed as prolonged surviving time at 4 mg/kg, iv measured 1 hr post dose; format: functional, organism-based
Rattus norvegicus [4] = assay: Protective activity in MCAO-induced rat focal cerebral ischemia model assessed as reduction in infarct size at 2 mg/kg, iv administered 1 hr post reperfusion measured after 24 hrs by TTC-staining based analysis; format: functional, organism-based
Mus musculus [5] = assay: Protective activity in BCCAO-induced mouse acute cerebral ischemia model assessed as prolonged surviving time at 4 mg/kg, iv measured 4 hrs post dose; format: functional, organism-based
Plasma = assay: Metabolic stability in mouse plasma at 20 mg/kg, iv measured 15 to 30 mins post dosing by HPLC-MS/MS method; format: ADME, organism-based; settings: in vivo
Rattus norvegicus [6] = assay: Protective activity in iv dosed MCAO-induced rat focal cerebral ischemia model assessed as reduction in infarct size treated at 1 hr post reperfusion measured after 24 hrs by TTC-staining based analysis; format: functional, organism-based
Brain [7] = assay: Drug uptake in mouse brain at 20 mg/kg, iv measured 15 to 30 mins post dosing by HPLC-MS/MS method; format: ADME, organism-based; settings: in vivo

SMILES: O=C(OC1CCCCC1)c1ccc(NCc2cc(Cl)cc(Cl)c2O)cc1O
- Drug metabolism (Brain [1]): metabolite_detected
- Activity (Rattus norvegicus [2]): Active
- Activity (Mus musculus [3]): Active
- Activity (Rattus norvegicus [4]): inactive
- Activity (Mus musculus [5]): Active
- Stability (Plasma): Stable
- Activity (Rattus norvegicus [6]): Dose-dependent effect

SMILES: COc1c(Cl)cc(Cl)cc1CNc1ccc(C(=O)O)c(O)c1
- Drug metabolism (Brain [1]): metabolite_notdetected

SMILES: CCOC(=O)c1ccc(NCc2cc(Cl)cc(Cl)c2O)cc1O
- Drug metabolism (Brain [1]): metabolite_detected
- Activity (Mus musculus [3]): Active
- Activity (Mus musculus [5]): Active
- Stability (Plasma): Stable

SMILES: COc1cc(NCc2cc(Cl)cc(Cl)c2O)ccc1C(=O)O
- Drug metabolism (Brain [1]): metabolite_notdetected
- Drug uptake (Brain [7]): Not Active
- Stability (Plasma): Unstable

SMILES: CN(Cc1cc(Cl)cc(Cl)c1O)c1ccc(C(=O)O)c(O)c1
- Drug metabolism (Brain [1]): metabolite_notdetected
- Drug uptake (Brain [7]): Not Active

SMILES: COC(=O)c1ccc(NCc2cc(Cl)cc(Cl)c2O)cc1O
- Drug metabolism (Brain [1]): metabolite_detected
- Activity (Mus musculus [3]): Active
- Stability (Plasma): Stable
